# Assay results: patent US8846653B2, “Delta-tocotrienol treatment and prevention of pancreatic cancer” (University of South Florida, priority 2006, dated 2014)
# Key:
# Type in all cases: cell-based, human
# BXPC3 cells [1] = experiment: Proliferation by MTT, increasing concentrations of δ-tocotrienol; conditions: BXPC3, at 24 hours; read-out: IC50 (inhibition of proliferation, MTT)
# Procedure: FIG. 24 is a graph wherein BXPC3 pancreatic cancer cells (3×10^3) were plated in 96 well plates and treated the following day with δ-tocotrienol. Proliferation was assessed by MTT at 24 hour intervals. […] HPDE 6C7 cells were also treated with increasing concentrations of δ-tocotrienol for 24 hours.
# MIA PaCa2, SW1990, BXPC3, and HPDE 6C7 cells (3×10^3) were cultured as described in the Examples above, in 96-well plates and treated the following day with increasing concentrations of δ-tocotrienol.
# BXPC3 cells [2] = experiment: Cell cycle phase by propidium iodide flow cytometry; conditions: BXPC3, 20 μM, 24 hours
# Procedure: (§1) MIA PaCa2, SW 1990, BXPC3 and HPDE 6C7 cells were treated with either 8-tocotrienol 20 μM or vehicle for 24 hours. Cells were harvested, washed twice in PBS, and fixed in ethanol overnight. Pellets were washed the following day in PBS, stained with propidium iodide, and analyzed by flow cytometry for cell cycle phase. […] Important regulators of the G1 cell cycle phase include members of the cyclin kinase inhibitor family. One of these members, p27^kip1, appears to be important in the progression of pancreatic cancer.
# MIA PaCa2 cells = experiment: as above; conditions: MIA PaCa2, 20 μM, 24 hours
# Procedure: as §1
# SW 1990 cells = experiment: as above; conditions: SW 1990, 20 μM, 24 hours
# Procedure: as §1
# HPDE 6C7 cells = experiment: as above; conditions: HPDE 6C7, 20 μM, 24 hours
# Procedure: as §1
structure (smiles),measurement,setting,value
"CC(C)=CCC/C(C)=C/CC/C(C)=C/CC[C@]1(C)CCc2cc(O)cc(C)c2O1 [T3 delta, delta tocotrienol]",IC50,BXPC3 cells [1],20 to 25 µM
same,cell cycle phase,BXPC3 cells [2],significant G1 cell cycle arrest
same,cell cycle phase,MIA PaCa2 cells,significant G1 cell cycle arrest
same,cell cycle phase,SW 1990 cells,significant G1 cell cycle arrest
same,cell cycle phase,HPDE 6C7 cells,no effect on cell cycle phase
